The values below come from US20100240709A1, “Sulfoximine Derivatives as p38 MAP Kinase Inhibitors” (priority 2005, published 2010).

Molecules are shown by their SMILES.

The test addresses p38 MAP kinase (Homo sapiens, UniProt Q16539). The experiment in a line: p-38 MAPK Enzyme assay (in vitro ELISA, ATF-2 substrate). Type of test: biochemical. The settings on record: ELISA detection of phosphorylated ATF-2. An excerpt:
The compounds were screened using an in vitro ELISA assay for p38 MAP kinase activity. Activated p38 MAP kinase during the course of its biological function phosphorylates its substrates. The assay was based on the detection of a phosphorylated p38 MAP kinase substrate using ATF-2 as the biological substrate. More the activity of the p38 MAP kinase inhibitor in the reaction mixture less will be the amount of active p38 MAP kinase available to phosphorylate ATF-2. So, lower OD value will indicate the higher inhibition of p38 MAP kinase by the specific p38 MAP kinase inhibitor. The quantitation of phosphorylated ATF-2 at varying concentrations of p38 MAP kinase inhibitor was used to determine the IC50 by fitting the results to a logistic dose-response program (Graphpad Prism, CA). IC50 was defined as the concentration of compound required to achieve 50% inhibition of p38 MAP kinase activity.
A general note: In an ELISA, binding on a coated surface is turned into a signal by an enzyme label.

p38 MAP kinase, sequence (Q16539 whole entry): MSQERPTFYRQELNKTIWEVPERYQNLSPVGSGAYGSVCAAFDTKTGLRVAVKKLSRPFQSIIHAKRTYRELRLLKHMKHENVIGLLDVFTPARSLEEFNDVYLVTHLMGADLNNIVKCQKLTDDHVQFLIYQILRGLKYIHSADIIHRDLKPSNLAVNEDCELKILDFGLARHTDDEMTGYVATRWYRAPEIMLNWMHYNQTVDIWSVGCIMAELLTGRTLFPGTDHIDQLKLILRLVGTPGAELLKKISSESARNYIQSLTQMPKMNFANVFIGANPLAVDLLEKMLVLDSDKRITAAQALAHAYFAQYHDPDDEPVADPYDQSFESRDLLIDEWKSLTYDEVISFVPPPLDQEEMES

As for `CCc1nc(-c2ccccc2)c(-c2ccnc(N=S(C)(=O)c3ccc(OC)cc3)c2)s1` (centres unmarked) [Example 23], the concentration for half-maximal inhibition (IC50) came to 6.6 µM. Regarding `CCc1nc(-c2cccc(C)c2)c(-c2ccnc(N=S3(=O)CCCCC3)c2)s1` [Example 18, 1-Imino-N-[4-(2-ethyl-4-(3-methylphenyl)-1,3-thiazol-5-yl)-pyridine-2-yl]-tetrahydro-2H-thiopyran-1-oxide], the IC50 turned out to be 15 µM.

The compound `CCc1nc(-c2cccc(C)c2)c(-c2ccnc(N=S(C)(=O)c3ccc(F)cc3)c2)s1` (stereo not drawn) [Example 7, S-Methyl-S-(4-fluorophenyl)-N-[4-(2-ethyl-4-(3-methylphenyl)-1,3-thiazol-5-yl)-pyridine-2-yl]-sulfoximine] showed a 50% inhibitory concentration (IC50) of 3.8 µM.

`CCc1nc(-c2ccccc2)c(-c2ccnc(N=S(C)(=O)c3ccccc3)c2)s1` (single isomer, unassigned; (-)) [Example 20]: 0.8 µM corresponded to half-maximal inhibition (IC50). For `CCc1nc(-c2cccc(C)c2)c(-c2ccnc(N=S(=O)(C3CCCCC3)C3CCCCC3)c2)s1` [Example 2, S,S-dicyclohexyl-N-[4-(2-ethyl-4-m-tolyl-thiazol-5-yl)-pyridine-2-yl]sulfoximine], the IC50 came to 1.2 µM. For `CCc1nc(-c2ccc(C)cc2)c(-c2ccnc(N=S(C)(=O)c3ccccc3)c2)s1` (centres unmarked) [Example 64, S-Methyl-S-phenyl-N-{4-[2-ethyl-4-p-tolyl-thiazol-5-yl]-pyridin-2-yl}-sulfoximine] the value was 9.4 µM; for `CCc1nc(-c2ccccc2)c(-c2ccnc(N=S(C)(=O)c3ccc(F)cc3)c2)s1` (centres unmarked) [Example 27], 3.1 µM; for `CCc1nc(-c2cccc(C)c2)c(-c2ccnc(N=[S@@](C)(=O)c3ccccc3)c2)s1` [Example 5, (+)-(S)-methyl-S-phenyl-N-[4-(2-ethyl-4-(3-methylphenyl)-1,3-thiazol-5-yl)-pyridine-2-yl]-sulfoximine], 1.4 µM. On to `CCc1nc(-c2ccc(F)cc2)c(-c2ccnc(N=S(C)(=O)c3ccccc3)c2)s1` (single isomer, unassigned; (+)) [Example 40, (+)-S-Methyl-S-phenyl-N-[4-(2-ethyl-4-(4-fluoro-phenyl)-1,3-thiazol-5-yl)-pyridine-2-yl]-sulfoximine], for which the IC50 came out at 2.7 µM. In the case of `CC(C)S(=O)(=Nc1cc(-c2scnc2-c2ccc(F)cc2)ccn1)c1ccccc1` (centres unmarked) [Example 74], the IC50 was 7.5 µM.

In turn, `CCc1nc(-c2ccccc2)c(-c2ccnc(N=S(=O)(c3ccccc3)C3CCCC3)c2)s1` (centres unmarked) [Example 28, S-Cyclopentyl-S-phenyl-N-[4-{2-ethyl-4-phenyl-thiazol-5-yl}-pyridine]-sulfoximine] showed an IC50 of 0.46 µM. `CCc1nc(-c2cccc(F)c2)c(-c2ccnc(N=S(C)(=O)c3ccccc3)c2)s1` (centres unmarked) [Example 50, S-Methyl-S-phenyl-N-[4-(2-ethyl-4-(3-fluoro-phenyl)-1,3-thiazol-5-yl)-pyridine-2-yl]-sulfoximine] displayed an IC50 of 4.4 µM. `CCc1nc(-c2cccc(C(F)(F)F)c2)c(-c2ccnc(N=S(C)(=O)c3ccccc3)c2)s1` (centres unmarked) [Example 54, S-Methyl-S-phenyl-N-{4-[2-ethyl-4-(3-trifluoromethylphenyl)-thiazol-5-yl]-pyridin-2-yl}sulfoximine] yielded an IC50 of 4.8 µM. For the compound `O=S(=Nc1cc(-c2scnc2-c2cccc(F)c2)ccn1)(c1ccccc1)C1CCCC1` (centres unmarked) [Example 70], the IC50 came to 8.2 µM. The compound `CCc1nc(-c2ccc(F)c(F)c2)c(-c2ccnc(N=S(C)(=O)c3ccc(F)cc3)c2)s1` (stereo not drawn) [Example 59, S-Methyl-S-(4-fluorophenyl)-N-{-4-[2-ethyl-4-(3,4-difluorophenyl)-thiazol-5-yl]pyridin-2-yl}-sulfoximine] yielded an IC50 of 6.6 µM. `CCc1nc(-c2ccc(F)cc2)c(-c2ccnc(N=S(=O)(c3ccccc3)C(C)C)c2)s1` (centres unmarked) [Example 35, S-Isopropyl-S-phenyl-N-{-4-[2-ethyl-4-(4-fluoro-phenyl)-thiazol-5-yl]-pyridin-2-yl}-sulfoximine] had an IC50 of 14.6 µM. On to `CCc1nc(-c2cccc(C)c2)c(-c2ccnc(N=S(=O)(c3ccccc3)C(C)C)c2)s1` (centres unmarked) [Example 13, S-Isopropyl-S-phenyl-N-[4-(2-ethyl-4-(3-methylphenyl)-1,3-thiazol-5-yl)-pyridine-2-yl]-sulfoximine], for which 1.3 µM corresponded to half-maximal inhibition (IC50). `CCc1nc(-c2ccccc2)c(-c2ccnc(N=S(C)(=O)c3ccccc3)c2)s1` (centres unmarked) [Example 31] registered a half-maximal inhibitory concentration (IC50) of 3.2 µM. Regarding `CCc1nc(-c2ccc(F)cc2)c(-c2ccnc(N=S(=O)(CC)c3ccccc3)c2)s1` (centres unmarked) [Example 38, S-Ethyl-S-phenyl-N-{4-[2-ethyl-4-(4-fluoro-phenyl)-thiazol-5-yl]-pyridin-2-yl}-sulfoximine], the IC50 was determined as 0.17 µM. In turn, `CCc1nc(-c2cccc(C)c2)c(-c2ccnc(N=S(=O)(c3ccccc3)c3ccccc3)c2)s1` [Example 11, S,S-Diphenyl-N-[4-(2-ethyl-4-m-tolyl-thiazol-5-yl)-pyridin-2-yl]-sulfoximine] returned an IC50 of 2 µM. `CCc1nc(-c2cccc(C)c2)c(-c2ccnc(N=S(C)(=O)c3cccc(C)c3)c2)s1` (stereo not drawn) [Example 10, S-(3-Methylphenyl)-S-methyl-N-[4-(2-ethyl-4-m-tolyl-thiazol-5-yl)-pyridin-2-yl]-sulfoximine] registered an IC50 of 11.1 µM. For `CCc1nc(-c2cccc(C)c2)c(-c2ccnc(N=S3(=O)CCCC3)c2)s1` [Example 19, 1-Imino-N-[4-(2-ethyl-4-(3-methylphenyl)-1,3-thiazol-5-yl)-pyridine-2-yl]-tetrahydro-thiophene-1-oxide] the value was 6.8 µM; for `CC(C)S(=O)(=Nc1cc(-c2scnc2-c2cccc(F)c2)ccn1)c1ccccc1` (centres unmarked) [Example 72], 3.9 µM; for `CCc1nc(-c2cccc(C)c2)c(-c2ccnc(N=S(C)(=O)c3ccccc3)c2)s1` (single isomer, unassigned; (-)) [Example 6, (−)-S-methyl-S-phenyl-N-[4-(2-ethyl-4-(3-methylphenyl)-1,3-thiazol-5-yl)-pyridine-2-yl]-sulfoximine], 0.15 µM.

`CCc1nc(-c2cccc(C)c2)c(-c2ccnc(N=S(=O)(CC(C)C)c3ccccc3)c2)s1` (centres unmarked) [Example 8, S-Isobutyl-S-phenyl-N-[4-(2-ethyl-4-m-tolyl-thiazol-5-yl)-pyridin-2-yl]-sulfoximine] had a 50% inhibitory concentration (IC50) of 55.4 µM. With `CCc1nc(-c2cccc(C)c2)c(-c2ccnc(N=S(C)(=O)c3cccc(F)c3)c2)s1` (stereo not drawn) [Example 9, S-(3-Fluorophenyl)-S-methyl-N-[4-(2-ethyl-4-m-tolyl-thiazol-5-yl)-pyridin-2-yl]-sulfoximine], the IC50 was 5.42 µM. `CCc1nc(-c2cccc(C)c2)c(-c2ccnc(N=S(C)(=O)c3ccccc3C)c2)s1` (stereo not drawn) [Example 12, S-(2-Methylphenyl)-S-methyl-N-[4-(2-ethyl-4-m-tolyl-thiazol-5-yl)-pyridin-2-yl]-sulfoximine] showed an IC50 of 6.95 µM. Take `CCc1nc(-c2ccccc2)c(-c2ccnc(N=S(=O)(c3ccccc3)C3CCCC3)c2)s1` (single isomer, unassigned; (-)) [Example 29]: the IC50 is 2.6 µM. Under `Cc1cccc(-c2nc(-c3ccc([S+](C)[O-])cc3)sc2-c2ccnc(N=S(C)(=O)c3ccccc3)c2)c1` (centres unmarked) [Example 57, S-Methyl-S-phenyl-N-{-4-[2-(4-methylsulfinyl-phenyl)-4-m-tolyl-thiazol-5-yl]-pyridin-2-yl}-sulfoximine] stands 6.5 µM. `O=S(=Nc1cc(-c2scnc2-c2ccc(F)cc2)ccn1)(c1ccccc1)C1CCCC1` (centres unmarked) [Example 75] yielded an IC50 of 12.6 µM.

Consider `CCc1nc(-c2cccc3ccccc23)c(-c2ccnc(N=S(C)(=O)c3ccccc3)c2)s1` (centres unmarked) [Example 53, S-Methyl-S-phenyl-N-{4-[2-ethyl-4-napthalene-1-yl-thiazol-5-yl]-pyridin-2-yl}-sulfoximine], for which the IC50 turned out to be 1.9 µM.

`CS(=O)(=Nc1cc(-c2scnc2-c2cccc(F)c2)ccn1)c1ccccc1` (centres unmarked) [Example 71] showed an IC50 of 25.5 µM. For the compound `CCc1nc(-c2cccc(C)c2)c(-c2ccnc(N=S(C)(=O)c3ccc(F)c(Cl)c3)c2)s1` (stereo not drawn) [Example 17, S-Methyl-S-(3-chloro-4-fluoro-phenyl)-N-[4-(2-ethyl-4-(3-methylphenyl)-1,3-thiazol-5-yl)-pyridine-2-yl]-sulfoximine], the IC50 is 10 µM. In turn, `CCc1nc(-c2cccc(C)c2)c(-c2ccnc(N=S(=O)(CC)c3ccccc3)c2)s1` (centres unmarked) [Example 14, S-Ethyl-S-Phenyl-N-[4-(2-ethyl-4-(3-methylphenyl)-1,3-thiazol-5-yl)-pyridine-2-yl]-sulfoximine] displayed an IC50 of 6.2 µM. On to `CCc1nc(-c2ccc(F)cc2)c(-c2ccnc(N=S(C)(=O)c3ccccc3)c2)s1` (centres unmarked) [Example 39, S-Methyl-S-phenyl-N-[4-(2-ethyl-4-(4-fluoro-phenyl)-1,3-thiazol-5-yl)-pyridine-2-yl]-sulfoximine], for which the IC50 worked out at 4.6 µM. For `CCc1nc(-c2ccc(F)cc2)c(-c2ccnc(N=S(C)(=O)c3ccc(OC)cc3)c2)s1` (stereo not drawn) [Example 34, S-(4-Methoxy-phenyl)-S-methyl-N-{-4-[2-ethyl-4-(4-fluoro-phenyl)-thiazol-5-yl]-pyridin-2-yl}-sulfoximine], 6.4 µM corresponded to half-maximal inhibition (IC50). For `CCc1nc(-c2cccc(C)c2)c(-c2ccnc(N=S(=O)(c3ccccc3)C3CCCC3)c2)s1` (centres unmarked) [Example 1, S-Cyclopentyl-S-phenyl-N-[4-(2-ethyl-4-(3-methylphenyl)-1,3-thiazol-5-yl)-pyridine-2-yl]-sulfoximine] the value was 0.78 µM; for `CCc1nc(-c2ccccc2)c(-c2ccnc(N=S(=O)(c3ccccc3)c3ccccc3)c2)s1` [Example 32, S,S-diphenyl-N-[4-(2-ethyl-4-phenyl-thiazol-5-yl)-pyridin-2-yl]-sulfoximine], 10 µM.

The term IC50 denotes the concentration that gives 50% inhibition. Low values mean inhibition by little substance, high ones a need for much substance.
